Like-named read-outs stand apart in the source and are kept apart here.
Experiments:
Type in all cases: binding
[1] = target: T1, HeLa cell extract proteins (Homo sapiens, UniProt O75694)
T1 construct: endogenous in cells; host or cells: HeLa cell extract
T1 sequence (O75694 1-1391): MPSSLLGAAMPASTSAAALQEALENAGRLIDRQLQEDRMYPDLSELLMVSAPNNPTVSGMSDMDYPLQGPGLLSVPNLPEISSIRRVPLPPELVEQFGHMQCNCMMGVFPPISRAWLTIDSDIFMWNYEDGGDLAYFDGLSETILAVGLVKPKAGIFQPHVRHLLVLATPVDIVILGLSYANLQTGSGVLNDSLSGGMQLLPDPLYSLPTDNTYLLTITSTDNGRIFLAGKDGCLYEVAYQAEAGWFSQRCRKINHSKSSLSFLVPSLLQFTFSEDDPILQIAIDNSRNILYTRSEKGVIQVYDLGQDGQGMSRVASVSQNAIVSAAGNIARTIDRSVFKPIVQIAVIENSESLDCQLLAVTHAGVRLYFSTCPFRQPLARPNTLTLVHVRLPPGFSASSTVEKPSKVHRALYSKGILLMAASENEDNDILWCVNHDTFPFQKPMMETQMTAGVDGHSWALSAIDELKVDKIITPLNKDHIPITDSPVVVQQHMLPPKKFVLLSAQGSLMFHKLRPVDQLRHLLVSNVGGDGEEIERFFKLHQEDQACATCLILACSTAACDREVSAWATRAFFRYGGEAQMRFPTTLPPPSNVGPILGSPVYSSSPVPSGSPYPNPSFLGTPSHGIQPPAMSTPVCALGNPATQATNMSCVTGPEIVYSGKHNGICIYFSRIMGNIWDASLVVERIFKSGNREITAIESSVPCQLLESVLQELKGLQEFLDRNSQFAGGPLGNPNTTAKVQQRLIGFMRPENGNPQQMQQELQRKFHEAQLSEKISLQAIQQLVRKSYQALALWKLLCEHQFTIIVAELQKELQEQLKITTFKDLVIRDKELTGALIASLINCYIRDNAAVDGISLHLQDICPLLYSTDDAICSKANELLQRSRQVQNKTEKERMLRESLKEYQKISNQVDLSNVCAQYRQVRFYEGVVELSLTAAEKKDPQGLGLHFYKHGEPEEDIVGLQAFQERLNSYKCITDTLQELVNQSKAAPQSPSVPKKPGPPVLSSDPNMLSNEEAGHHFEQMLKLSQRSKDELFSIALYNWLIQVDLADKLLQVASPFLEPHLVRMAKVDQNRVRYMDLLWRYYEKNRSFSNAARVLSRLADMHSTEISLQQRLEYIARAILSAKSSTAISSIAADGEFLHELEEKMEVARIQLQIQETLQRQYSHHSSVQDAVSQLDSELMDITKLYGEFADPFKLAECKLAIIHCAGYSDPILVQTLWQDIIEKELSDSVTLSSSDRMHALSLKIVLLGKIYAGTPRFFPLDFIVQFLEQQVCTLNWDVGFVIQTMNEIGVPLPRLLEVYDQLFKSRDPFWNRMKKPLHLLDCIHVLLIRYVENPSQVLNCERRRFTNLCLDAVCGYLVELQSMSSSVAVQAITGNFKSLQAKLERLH

[2] = target: T2, HeLa cell extract proteins (Homo sapiens, UniProt O95373)
T2 construct: endogenous in cells; host or cells: HeLa cell extract
T2 sequence (O95373 whole entry): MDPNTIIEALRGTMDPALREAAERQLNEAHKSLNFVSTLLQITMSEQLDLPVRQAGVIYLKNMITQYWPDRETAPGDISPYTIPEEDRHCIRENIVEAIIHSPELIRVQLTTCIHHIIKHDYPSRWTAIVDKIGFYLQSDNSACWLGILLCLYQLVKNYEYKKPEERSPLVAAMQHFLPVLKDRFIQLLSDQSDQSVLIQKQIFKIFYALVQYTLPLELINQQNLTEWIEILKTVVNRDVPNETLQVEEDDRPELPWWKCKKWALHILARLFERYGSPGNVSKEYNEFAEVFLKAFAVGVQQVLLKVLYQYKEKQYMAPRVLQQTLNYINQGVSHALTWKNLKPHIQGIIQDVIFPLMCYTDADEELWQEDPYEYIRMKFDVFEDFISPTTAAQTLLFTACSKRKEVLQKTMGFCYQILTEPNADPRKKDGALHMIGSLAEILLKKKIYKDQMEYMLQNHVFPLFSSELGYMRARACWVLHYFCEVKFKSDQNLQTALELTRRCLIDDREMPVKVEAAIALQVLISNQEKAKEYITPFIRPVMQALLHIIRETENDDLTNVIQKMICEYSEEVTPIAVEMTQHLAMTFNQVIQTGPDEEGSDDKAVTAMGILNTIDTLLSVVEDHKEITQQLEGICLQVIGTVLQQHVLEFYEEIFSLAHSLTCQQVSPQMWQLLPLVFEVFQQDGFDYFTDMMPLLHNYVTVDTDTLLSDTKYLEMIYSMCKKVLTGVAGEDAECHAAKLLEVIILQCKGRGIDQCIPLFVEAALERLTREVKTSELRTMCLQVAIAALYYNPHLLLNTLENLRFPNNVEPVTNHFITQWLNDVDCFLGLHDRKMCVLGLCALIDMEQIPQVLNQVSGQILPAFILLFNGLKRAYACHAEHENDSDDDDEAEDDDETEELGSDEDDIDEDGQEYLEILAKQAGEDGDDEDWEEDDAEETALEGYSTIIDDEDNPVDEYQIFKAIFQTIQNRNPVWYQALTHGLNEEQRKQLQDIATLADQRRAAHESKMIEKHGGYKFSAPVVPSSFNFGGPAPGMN

[3] = target: T3, HeLa cell extract proteins (Homo sapiens, UniProt O95486)
T3 construct: endogenous in cells; host or cells: HeLa cell extract
T3 sequence (O95486 1-1093): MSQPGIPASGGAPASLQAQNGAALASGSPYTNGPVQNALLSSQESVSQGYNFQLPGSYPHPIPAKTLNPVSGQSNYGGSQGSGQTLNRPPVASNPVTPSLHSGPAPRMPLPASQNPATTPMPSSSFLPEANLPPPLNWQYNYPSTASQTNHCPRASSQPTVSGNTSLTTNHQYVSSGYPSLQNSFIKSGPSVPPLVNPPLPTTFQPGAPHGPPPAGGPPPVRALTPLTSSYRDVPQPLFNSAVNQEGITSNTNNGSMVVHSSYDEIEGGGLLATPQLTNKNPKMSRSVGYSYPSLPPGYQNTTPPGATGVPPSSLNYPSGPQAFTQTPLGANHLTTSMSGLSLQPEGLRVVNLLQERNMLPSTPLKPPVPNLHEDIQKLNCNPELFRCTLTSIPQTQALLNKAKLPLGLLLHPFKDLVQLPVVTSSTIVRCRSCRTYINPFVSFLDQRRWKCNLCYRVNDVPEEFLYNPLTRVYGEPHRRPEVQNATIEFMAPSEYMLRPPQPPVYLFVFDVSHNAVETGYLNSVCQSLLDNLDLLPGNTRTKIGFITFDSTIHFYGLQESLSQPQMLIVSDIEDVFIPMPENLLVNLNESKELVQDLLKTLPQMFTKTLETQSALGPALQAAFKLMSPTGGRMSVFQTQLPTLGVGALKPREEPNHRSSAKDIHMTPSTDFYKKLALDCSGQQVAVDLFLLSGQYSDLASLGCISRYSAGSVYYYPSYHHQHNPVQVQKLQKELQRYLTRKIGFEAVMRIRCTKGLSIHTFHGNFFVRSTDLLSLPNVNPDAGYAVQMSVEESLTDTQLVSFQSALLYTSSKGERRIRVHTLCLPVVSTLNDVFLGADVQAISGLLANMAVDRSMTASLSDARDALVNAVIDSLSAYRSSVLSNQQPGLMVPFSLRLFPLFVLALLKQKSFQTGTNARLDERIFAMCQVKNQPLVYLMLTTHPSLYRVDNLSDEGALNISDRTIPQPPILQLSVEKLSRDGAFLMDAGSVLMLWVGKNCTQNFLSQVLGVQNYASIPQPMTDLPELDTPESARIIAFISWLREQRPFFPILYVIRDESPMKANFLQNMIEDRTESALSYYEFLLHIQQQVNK

[4] = target: T4, HeLa cell extract proteins (Homo sapiens, UniProt P31942)
T4 construct: endogenous in cells; host or cells: HeLa cell extract
T4 sequence (P31942 1-346): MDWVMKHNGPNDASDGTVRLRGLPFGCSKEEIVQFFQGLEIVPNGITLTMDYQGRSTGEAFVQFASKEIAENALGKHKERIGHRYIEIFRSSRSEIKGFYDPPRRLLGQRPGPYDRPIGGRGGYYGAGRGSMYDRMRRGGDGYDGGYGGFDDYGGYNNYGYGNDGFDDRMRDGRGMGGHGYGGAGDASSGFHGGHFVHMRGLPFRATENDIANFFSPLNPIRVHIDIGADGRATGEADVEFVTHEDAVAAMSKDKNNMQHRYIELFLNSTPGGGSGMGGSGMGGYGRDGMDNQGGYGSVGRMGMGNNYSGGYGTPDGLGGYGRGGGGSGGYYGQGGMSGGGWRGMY

| SMILES | fold changes relative to vehicle control ([1]; HeLa, protein NUP155) | fold changes relative to vehicle control ([2]; protein IPO7, HeLa) | fold changes relative to vehicle control ([3]; protein SEC24A, HeLa) | fold changes relative to vehicle control ([4]; protein HNRNPH3, HeLa) | fold changes relative to vehicle control ([2]; HeLa, protein IPO7) | fold changes relative to vehicle control ([3]; HeLa, protein SEC24A) | fold changes relative to vehicle control ([4]; HeLa, captured protein HNRNPH3) | fold changes relative to vehicle control [1] | fold changes relative to vehicle control [2] | fold changes relative to vehicle control [3] | fold changes relative to vehicle control [4] |
| --- | --- | --- | --- | --- | --- | --- | --- | --- | --- | --- | --- |
| Nc1nc2cccc(-c3ccccc3)c2n1Cc1ccc(Cl)c(Cl)c1 [compound 3] | 1.2 | 1.17 | 1.03 | 1.09 | – | – | – | – | – | – | – |
| CCCCCCOc1ccc(Cc2cnc(N)nc2N)cc1 [compound 1] | 1.04 | 0.93 | 1.15 | 1.08 | – | – | – | – | – | – | – |
| NCCCNc1ccc(C(=O)NC(CCC(=O)O)C(=O)O)cc1 (stereo not shown) [compound 7] | 1.03 | – | – | – | 0.99 | 1.01 | 1.01 | – | – | – | – |
| CCCCCCOc1cccc(Cc2cnc(N)nc2N)c1 [compound 2] | 1.01 | 1.09 | 1.44 | 0.97 | – | – | – | – | – | – | – |
| NCCOCCOCC(=O)Nc1nc2ncc(CNc3ccc(C(=O)NC(CCC(=O)O)C(=O)O)cc3)nc2c(=O)[nH]1 (stereo not shown) [compound 6] | 0.92 | – | – | – | 0.98 | 1.03 | 0.99 | – | – | – | – |
| Nc1nc2[nH]cc(CCc3ccc(C(=O)N[C@@H](CCC(=O)O)C(=O)O)cc3)c2c(=O)[nH]1 [PTX, pemetrexed] | – | – | – | – | – | – | – | 0.92 | 0.93 | 1.03 | 0.94 |
| Nc1nc2c(c(=O)[nH]1)N(C=O)C(CNc1ccc(C(=O)N[C@@H](CCC(=O)O)C(=O)O)cc1)CN2 (stereo partly shown) [LEU, leucovorin] | 0.87 | – | – | – | 0.94 | 1.02 | 0.94 | – | – | – | – |

— article PMC6199744, “Development of Chemical Proteomics for the Folateome and Analysis of the Kinetoplastid Folateome” (ACS Infectious Diseases, 2018)
